Structures are written as SMILES. Counter-ions that a name gives are not always drawn.

A word on the IC50: it is the concentration at which inhibition is half-maximal.

One test has as its target T1, Mouse SSAO/VAP-1 (Mus musculus, UniProt O70423).
T1 construct: Adipocytes were used as an SSAO source either as adherent cells or as a homogenate; endogenous in cells; host or cells: 3T3-L1 murine fibroblasts (ATCC) differentiated into adipocytes
T1 sequence (O70423 1-765): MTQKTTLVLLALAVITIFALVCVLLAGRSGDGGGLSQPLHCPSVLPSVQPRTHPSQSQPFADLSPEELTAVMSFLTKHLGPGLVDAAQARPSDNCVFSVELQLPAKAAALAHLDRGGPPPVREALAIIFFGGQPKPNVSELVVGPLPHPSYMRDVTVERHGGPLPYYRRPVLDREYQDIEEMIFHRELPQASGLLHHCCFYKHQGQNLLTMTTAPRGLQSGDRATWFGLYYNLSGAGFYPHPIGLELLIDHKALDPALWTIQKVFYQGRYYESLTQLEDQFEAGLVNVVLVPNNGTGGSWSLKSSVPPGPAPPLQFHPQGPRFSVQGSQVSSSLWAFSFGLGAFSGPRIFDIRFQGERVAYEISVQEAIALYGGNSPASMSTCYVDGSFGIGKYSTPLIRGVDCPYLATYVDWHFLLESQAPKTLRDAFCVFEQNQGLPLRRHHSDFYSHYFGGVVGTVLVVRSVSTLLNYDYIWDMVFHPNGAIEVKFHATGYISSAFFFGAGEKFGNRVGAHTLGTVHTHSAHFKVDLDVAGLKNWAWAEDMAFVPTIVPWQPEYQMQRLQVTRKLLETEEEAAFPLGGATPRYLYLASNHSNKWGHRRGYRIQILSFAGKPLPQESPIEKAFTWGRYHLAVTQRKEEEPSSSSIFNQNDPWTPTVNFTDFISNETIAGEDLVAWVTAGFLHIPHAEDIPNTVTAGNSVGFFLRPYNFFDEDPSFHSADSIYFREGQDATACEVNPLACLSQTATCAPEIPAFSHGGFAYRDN
As to the kind of experiment: Inhibition of amine oxidase activity of mouse SSAO/VAP-1 (3T3-L1 adipocytes, Amplex Red). The class given is biochemical. The conditions noted are these: 3T3-L1 adipocyte SSAO, 30 min at 37° C. preincubation, 40 μM benzylamine. From the text: 3T3-L1 Murine fibroblasts were purchased from the American Type Culture Collection (ATCC, Rockville, Md.). Dulbecco's Modified Eagle Medium (DMEM) and fetal calf serum (FCS), antibiotics and Amplex® Red were obtained from Invitrogen (Carlsbad, Calif.). Tissue culture plastics and black clear-bottom 96 well plates were from BD Falcon (Bedford, Mass.). Bicinchoninic acid (BCA) reagent was from Pierce (Rockford, Ill.). All other materials were obtained from Sigma (St. Louis, Mo.).
3T3-L1 Fibroblasts were cultured in DMEM supplemented with 10% heat-inactivated FCS, 2 mM L-glutamine, 100 U/L penicillin and 100 μg/L streptomycin at 37° C. in 5% CO2. For differentiation into adipocytes, fibroblasts were cultured in DMEM with FCS for 1 or 2 days postconfluence, after which the cells were cultured for 3 days in DMEM containing 10% FCS, 350 nM insulin, 0.5 mM 3-isobutyl-1-methylxanthine, 250 nM dexamethasone, and 400 nM biotin and for 3 days in DMEM containing 10% FCS and 350 nM insulin. After differentiation, adipocytes were maintained in DMEM supplemented with 10% FCS. Adipocytes were used for experiments 8 to 11 days after the onset of differentiation, and the medium was renewed 2 or 3 days prior to each experiment. For culturing in black clear-bottom 96-well plates, cells were seeded at a 1:1 cell surface ratio, and differentiation was initiated 4 days postseeding. Cells were used between days 6-12 post-differentiation and between passages 7 and 20. Adipocytes were used as an SSAO source either as adherent cells or as a homogenate.
To prepare homogenate, 10 cm dishes of adipocytes were washed with HES buffer (20 mM HEPES, 1 mM EDTA, 250 mM sucrose, pH 7.4) and scraped in HES buffer containing 10 μg/mL leupeptin, 10 μM pepstatin and 1 mM PMSF. Cells were lysed by passage through a 23 G needle followed by passage through a 27 G needle. The lysate was spun at 500 g for 5 min and fat was removed. Protein concentration of the supernatant was measured using a BCA assay according to the manufacturer's instructions. The homogenate was stored at −80° C. until needed.
(§1) To measure the SSAO activity, adipocyte homogenate (0.5 mg/mL) or adipocytes (adhering cells) containing 0.5 mM pargyline, or purified human SSAO was incubated in 0.1 M sodium phosphate buffer pH 7.4 with varying concentrations of test compounds for 30 min at 37° C. The homogenate was then incubated at 37° C. with 60 μM Amplex® Red, 0.75 U/mL HRP and 40 μM benzylamine (mouse SSAO) or 300 μM benzylamine (human SSAO) and the formation of resorufin was measured (excitation range 530-560 nm and emission at 590 nm) every 10 min in either a Tecan Infinite 200 or a BMG plate reader. The IC50 values were estimated using Graphpad Prism software. The IC50 is an estimation of the concentration of the test compound to inhibit the amine oxidase activity of SSAO/VAP-1 by 50%. The IC50 values of certain invention compounds are included in Table 1.

For another test, the target named is T2, Human SSAO/VAP-1 (Homo sapiens, UniProt Q16853).
T2 sequence (Q16853 1-763): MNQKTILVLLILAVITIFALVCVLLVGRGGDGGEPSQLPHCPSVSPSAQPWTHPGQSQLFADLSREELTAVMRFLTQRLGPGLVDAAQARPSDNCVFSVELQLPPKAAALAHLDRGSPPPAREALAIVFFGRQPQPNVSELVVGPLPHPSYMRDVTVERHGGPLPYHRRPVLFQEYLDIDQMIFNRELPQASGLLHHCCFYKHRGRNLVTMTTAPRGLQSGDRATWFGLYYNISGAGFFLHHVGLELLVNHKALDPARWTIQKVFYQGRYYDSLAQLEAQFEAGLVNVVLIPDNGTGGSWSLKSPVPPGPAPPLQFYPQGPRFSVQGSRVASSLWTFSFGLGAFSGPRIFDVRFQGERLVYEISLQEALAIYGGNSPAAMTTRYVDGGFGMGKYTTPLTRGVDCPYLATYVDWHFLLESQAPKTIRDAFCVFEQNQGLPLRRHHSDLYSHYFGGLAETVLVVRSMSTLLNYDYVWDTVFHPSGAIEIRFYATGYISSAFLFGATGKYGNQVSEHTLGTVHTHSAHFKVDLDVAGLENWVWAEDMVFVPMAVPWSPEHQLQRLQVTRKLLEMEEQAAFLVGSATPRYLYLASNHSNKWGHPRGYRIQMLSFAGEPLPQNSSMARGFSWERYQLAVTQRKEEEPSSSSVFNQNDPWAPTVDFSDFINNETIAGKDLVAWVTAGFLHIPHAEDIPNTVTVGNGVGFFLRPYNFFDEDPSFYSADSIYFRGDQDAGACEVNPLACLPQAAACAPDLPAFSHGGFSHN
In words: Inhibition of amine oxidase activity of purified human SSAO/VAP-1 (Amplex Red). The test is classed as biochemical. The conditions noted are these: purified human SSAO, 30 min at 37° C. preincubation, 300 μM benzylamine. Here is the method:
as §1

The target in a further test is T3, Human MAO-B (Homo sapiens, UniProt P27338).
T3 sequence (P27338 1-520): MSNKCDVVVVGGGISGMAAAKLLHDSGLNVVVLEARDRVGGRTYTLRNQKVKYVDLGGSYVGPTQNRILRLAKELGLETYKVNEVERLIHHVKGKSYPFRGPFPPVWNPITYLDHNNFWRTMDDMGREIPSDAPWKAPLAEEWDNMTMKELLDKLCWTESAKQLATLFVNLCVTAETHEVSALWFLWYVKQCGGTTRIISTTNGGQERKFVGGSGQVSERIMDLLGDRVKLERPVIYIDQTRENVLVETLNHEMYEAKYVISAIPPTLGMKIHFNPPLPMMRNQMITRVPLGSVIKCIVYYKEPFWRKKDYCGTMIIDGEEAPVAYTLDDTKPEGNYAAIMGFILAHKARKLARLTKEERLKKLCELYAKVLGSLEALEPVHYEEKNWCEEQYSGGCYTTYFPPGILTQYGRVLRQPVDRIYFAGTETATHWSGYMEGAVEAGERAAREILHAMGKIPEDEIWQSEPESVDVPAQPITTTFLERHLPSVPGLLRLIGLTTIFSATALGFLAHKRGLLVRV
As to the kind of experiment: Inhibition of recombinant MAO-B (Amplex Red). The class given is biochemical. The conditions noted are these: 30 min at 37° C. preincubation, 50 μM benzylamine. Here is the method: Recombinant MAO-B was incubated in 0.1 M sodium phosphate buffer pH 7.4 with varying concentration of test compounds for 30 min at 37° C. The homogenate/protein was then incubated at 37° C. with […] Amplex® Red, 0.75 U/ml HRP and 40 μM benzylamine (mouse SSAO), 300 μM benzylamine (human SSAO), 100 μM tyramine (MAO-A) or 50 μM benzylamine (MAO-B) and the formation of resorufin was measured (excitation range 530-560 nm and emission at 590 nm) every 5 min in either a Tecan Infinite 200 or a BMG Fluorostar Optima platereader. IC50 were estimated using Graphpad Prism software.

A further test addresses T4, rat SSAO/VAP-1 (Rattus norvegicus, UniProt O08590).
T4 sequence (O08590 1-763): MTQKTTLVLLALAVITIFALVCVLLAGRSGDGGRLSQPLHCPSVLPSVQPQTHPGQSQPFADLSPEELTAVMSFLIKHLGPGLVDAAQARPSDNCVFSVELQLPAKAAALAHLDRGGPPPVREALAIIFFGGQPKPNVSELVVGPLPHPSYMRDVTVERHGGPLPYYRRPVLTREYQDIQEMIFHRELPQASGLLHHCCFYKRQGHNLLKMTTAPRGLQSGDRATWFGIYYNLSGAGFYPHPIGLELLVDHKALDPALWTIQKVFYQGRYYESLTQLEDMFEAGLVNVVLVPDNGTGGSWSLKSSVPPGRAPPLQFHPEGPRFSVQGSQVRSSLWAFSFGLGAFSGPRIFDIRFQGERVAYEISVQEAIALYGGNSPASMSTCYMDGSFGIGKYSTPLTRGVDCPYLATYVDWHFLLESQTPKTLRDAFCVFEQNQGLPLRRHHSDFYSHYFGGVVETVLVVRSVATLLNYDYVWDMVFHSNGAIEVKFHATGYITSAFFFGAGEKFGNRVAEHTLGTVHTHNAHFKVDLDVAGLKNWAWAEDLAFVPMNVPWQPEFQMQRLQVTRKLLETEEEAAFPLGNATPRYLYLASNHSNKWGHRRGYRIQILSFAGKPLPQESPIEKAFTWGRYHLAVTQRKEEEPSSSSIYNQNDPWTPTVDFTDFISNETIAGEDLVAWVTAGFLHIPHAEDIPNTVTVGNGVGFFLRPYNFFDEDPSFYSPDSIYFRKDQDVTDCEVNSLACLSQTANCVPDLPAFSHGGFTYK
The conditions noted are these: reports in the literature; cited from earlier work.

Regarding `NC/C=C(/F)COc1ccc(C(=O)NCc2ccccc2)cc1` [(E)-4-(4-Amino-2-fluorobut-2-enyloxy)-N-benzylbenzamide hydrochloride], the IC50 on Mouse SSAO/VAP-1, on Human SSAO/VAP-1 and at Human MAO-B was less than 1 µM each time.

For `NC/C(=C/Cl)c1ccccc1` [MDL72274], on rat SSAO/VAP-1, the “Selectivity for rat SSAO/VAP-1 compared to MAO-A and MAO-B” value is reported as “selectively inhibiting rat SSAO/VAP-1”.

The record behind these values is patent US8426587B2, “Haloallylamine inhibitors of SSAO/VAP-1 and uses therefor” (Pharmaxis Ltd., priority 2007, dated 2013).
